Values after ≈ are worked out from the molar mass of the structure shown.
Columns and labels:
insect bites = conditions: DEET at 100%; cited from earlier work
[1] = Water solubility of core solvents; format: physicochemical
[2] = cited from earlier work; for δD: Hansen dispersion value; for δH: Hansen h-bonding value; for δP: Hansen polar value

Row | Structure (SMILES) | hours of protection against insect bites (insect bites) | solubility [1] | δD [2] | δH [2] | δP [2]
1 | CCN(CC)C(=O)c1cccc(C)c1 [DEET, N,N-Diethyl-meta-toluamide] | up to 12 hours | – | – | – | –
2 | CCCCCCCCCCCCCC(=O)OC(C)C [isopropyl myristate] | – | < 0.0001 mg/mL | 16 | 2.7 | 2.1
3 | CC(=O)OCC(COC(C)=O)OC(C)=O [triacetin] | – | 21.5 mg/mL (≈ 98.6 mM) | 16.4 | 9.6 | 5.7
